Measurements as given in US20240400577A1, “MODULATORS OF PROTEIN KINASES” (VIBLIOME THERAPEUTICS, LLC, priority 2021, published 2024).

Experiments:
Assay in all cases: Kinase panel enzymatic inhibition assay (Nanosyn)
Assay type in all cases: biochemical
TNIK = target: T1, TNIK (Homo sapiens, UniProt Q9UKE5); details: compound 5 μM; ATP at Km; 30-minute pre-incubation
T1 construct: Nanosyn (contract laboratory that ran the panel)
Outline: (§1)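 Read-out is percent inhibition or IC50, obtained by mobility shift, ADP detection or time-resolved fluorescence detection. Each kinase was run with ATP at its Km, and compound at 5 μM was pre-incubated for 30 minutes.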

PDGFRa = target: T2, PDGFRa (Homo sapiens, UniProt P16234); details: compound 5 μM; ATP at Km; 30-minute pre-incubation
T2 construct: Nanosyn (contract laboratory that ran the panel)
Outline: as §1

BRAF = target: T3, BRAF (Homo sapiens, UniProt P15056); details: compound 5 μM; ATP at Km; 30-minute pre-incubation
T3 construct: purchased Nanosyn (contract screening)
Outline: as §1

CRAF = target: T4, CRAF (Homo sapiens, UniProt P04049); details: compound 5 μM; ATP at Km; 30-minute pre-incubation
T4 construct: purchased Nanosyn (contract screening)
T4 sequence (P04049 whole entry): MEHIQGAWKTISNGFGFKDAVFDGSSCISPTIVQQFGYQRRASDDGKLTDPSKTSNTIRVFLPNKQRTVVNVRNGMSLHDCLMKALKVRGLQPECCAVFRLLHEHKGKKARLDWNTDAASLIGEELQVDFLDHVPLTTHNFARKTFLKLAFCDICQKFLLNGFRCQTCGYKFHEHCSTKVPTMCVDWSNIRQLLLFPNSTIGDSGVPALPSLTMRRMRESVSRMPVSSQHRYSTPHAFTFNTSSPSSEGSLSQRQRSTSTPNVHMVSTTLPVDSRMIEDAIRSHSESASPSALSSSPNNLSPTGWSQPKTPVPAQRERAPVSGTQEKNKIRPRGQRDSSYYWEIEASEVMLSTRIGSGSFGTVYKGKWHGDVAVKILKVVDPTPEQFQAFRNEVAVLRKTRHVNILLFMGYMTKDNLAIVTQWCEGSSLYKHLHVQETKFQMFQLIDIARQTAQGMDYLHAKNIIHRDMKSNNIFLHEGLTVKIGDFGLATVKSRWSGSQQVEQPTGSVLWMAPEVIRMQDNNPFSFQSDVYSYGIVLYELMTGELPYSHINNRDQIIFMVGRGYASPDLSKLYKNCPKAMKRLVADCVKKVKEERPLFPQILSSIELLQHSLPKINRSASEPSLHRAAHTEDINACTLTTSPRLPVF
Outline: as §1

CSK = target: T5, CSK (Homo sapiens, UniProt P41240); details: compound 5 μM; ATP at Km; 30-minute pre-incubation
T5 construct: purchased Nanosyn (contract screening)
Outline: as §1

HGK = target: T6, HGK (Homo sapiens, UniProt O95819); details: compound 5 μM; ATP at Km; 30-minute pre-incubation
T6 construct: purchased Nanosyn (contract screening)
T6 sequence (O95819 whole entry): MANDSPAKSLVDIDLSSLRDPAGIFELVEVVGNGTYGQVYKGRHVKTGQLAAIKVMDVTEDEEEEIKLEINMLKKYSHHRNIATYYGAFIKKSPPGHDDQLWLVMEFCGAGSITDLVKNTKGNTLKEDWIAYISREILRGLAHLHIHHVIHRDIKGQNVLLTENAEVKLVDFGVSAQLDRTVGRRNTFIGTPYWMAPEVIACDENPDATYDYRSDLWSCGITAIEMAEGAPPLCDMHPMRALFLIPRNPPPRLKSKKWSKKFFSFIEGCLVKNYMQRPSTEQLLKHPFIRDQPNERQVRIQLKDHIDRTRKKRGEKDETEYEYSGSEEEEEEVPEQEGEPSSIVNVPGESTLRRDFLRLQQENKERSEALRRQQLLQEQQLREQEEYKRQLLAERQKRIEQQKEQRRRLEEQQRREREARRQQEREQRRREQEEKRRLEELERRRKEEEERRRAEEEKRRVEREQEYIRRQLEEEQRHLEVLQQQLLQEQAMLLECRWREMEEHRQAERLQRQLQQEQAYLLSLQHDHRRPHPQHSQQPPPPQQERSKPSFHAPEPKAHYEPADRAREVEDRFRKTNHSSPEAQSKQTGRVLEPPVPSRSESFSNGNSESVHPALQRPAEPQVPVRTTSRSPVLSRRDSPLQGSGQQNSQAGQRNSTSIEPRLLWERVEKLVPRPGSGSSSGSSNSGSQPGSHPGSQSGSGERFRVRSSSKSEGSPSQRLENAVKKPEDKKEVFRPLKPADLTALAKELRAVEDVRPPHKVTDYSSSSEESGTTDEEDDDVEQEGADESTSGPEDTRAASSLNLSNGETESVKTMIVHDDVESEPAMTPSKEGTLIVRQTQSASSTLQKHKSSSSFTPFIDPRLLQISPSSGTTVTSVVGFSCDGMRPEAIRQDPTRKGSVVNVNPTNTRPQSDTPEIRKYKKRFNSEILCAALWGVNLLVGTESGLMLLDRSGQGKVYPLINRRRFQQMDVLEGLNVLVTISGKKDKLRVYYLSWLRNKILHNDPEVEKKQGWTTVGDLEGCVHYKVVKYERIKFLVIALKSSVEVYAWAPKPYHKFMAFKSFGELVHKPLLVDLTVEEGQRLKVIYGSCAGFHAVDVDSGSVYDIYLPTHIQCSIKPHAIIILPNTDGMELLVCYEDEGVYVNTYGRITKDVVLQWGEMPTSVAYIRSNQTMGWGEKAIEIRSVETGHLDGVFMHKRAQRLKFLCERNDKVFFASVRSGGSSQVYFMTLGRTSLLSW
Outline: as §1

DDR2 = target: T7, DDR2 (Homo sapiens, UniProt Q16832); details: ATP at Km, 30-minute pre-incubation; for inhibition at 5 µM: compound 5 μM; for IC50: read-out: kinase inhibition in terms of IC50, DDR2
T7 construct: purchased Nanosyn (contract screening)
T7 sequence (Q16832 22-855): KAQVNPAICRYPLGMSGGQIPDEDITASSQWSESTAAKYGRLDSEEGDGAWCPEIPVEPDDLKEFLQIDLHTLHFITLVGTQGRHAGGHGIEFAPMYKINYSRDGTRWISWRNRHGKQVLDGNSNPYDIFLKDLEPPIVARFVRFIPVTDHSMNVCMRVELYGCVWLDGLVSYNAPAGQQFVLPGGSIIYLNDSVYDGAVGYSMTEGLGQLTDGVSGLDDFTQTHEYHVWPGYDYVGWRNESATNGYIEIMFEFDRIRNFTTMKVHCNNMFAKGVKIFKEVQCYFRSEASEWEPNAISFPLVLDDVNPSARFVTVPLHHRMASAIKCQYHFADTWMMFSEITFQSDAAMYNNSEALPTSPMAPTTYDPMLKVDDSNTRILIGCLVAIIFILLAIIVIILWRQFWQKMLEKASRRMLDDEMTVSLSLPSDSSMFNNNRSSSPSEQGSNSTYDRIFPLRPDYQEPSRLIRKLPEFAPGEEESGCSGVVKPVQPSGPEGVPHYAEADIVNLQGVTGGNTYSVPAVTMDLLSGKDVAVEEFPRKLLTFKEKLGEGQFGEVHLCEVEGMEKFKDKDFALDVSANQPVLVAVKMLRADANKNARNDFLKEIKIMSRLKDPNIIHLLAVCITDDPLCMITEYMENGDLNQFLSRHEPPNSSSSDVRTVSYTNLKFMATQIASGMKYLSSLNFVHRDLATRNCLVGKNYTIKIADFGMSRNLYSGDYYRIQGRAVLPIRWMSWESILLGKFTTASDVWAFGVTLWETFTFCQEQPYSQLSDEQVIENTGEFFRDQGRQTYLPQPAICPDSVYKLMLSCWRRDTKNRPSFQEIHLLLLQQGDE
Outline: as §1

MNK2 = target: T8, MNK2 (Homo sapiens, UniProt Q9HBH9); details: compound 5 μM; ATP at Km; 30-minute pre-incubation
T8 construct: Nanosyn (contract laboratory that ran the panel)
T8 sequence (Q9HBH9 whole entry): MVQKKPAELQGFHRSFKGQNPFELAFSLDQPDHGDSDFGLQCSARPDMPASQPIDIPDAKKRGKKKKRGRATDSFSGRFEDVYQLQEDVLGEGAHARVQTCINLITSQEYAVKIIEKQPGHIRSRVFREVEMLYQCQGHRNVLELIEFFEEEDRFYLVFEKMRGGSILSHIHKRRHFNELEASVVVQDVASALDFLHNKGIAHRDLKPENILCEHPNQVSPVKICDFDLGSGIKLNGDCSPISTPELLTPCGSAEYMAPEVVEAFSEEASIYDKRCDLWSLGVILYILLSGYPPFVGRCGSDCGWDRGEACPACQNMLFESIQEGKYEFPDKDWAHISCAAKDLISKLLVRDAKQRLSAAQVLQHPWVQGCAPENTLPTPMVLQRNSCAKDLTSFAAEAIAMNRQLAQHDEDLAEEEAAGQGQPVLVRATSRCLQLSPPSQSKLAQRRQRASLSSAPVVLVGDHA
Outline: as §1

SGK2 = target: T9, SGK2 (Homo sapiens, UniProt Q9HBY8); details: compound 5 μM; ATP at Km; 30-minute pre-incubation
T9 construct: Nanosyn (contract laboratory that ran the panel)
T9 sequence (Q9HBY8 1-367): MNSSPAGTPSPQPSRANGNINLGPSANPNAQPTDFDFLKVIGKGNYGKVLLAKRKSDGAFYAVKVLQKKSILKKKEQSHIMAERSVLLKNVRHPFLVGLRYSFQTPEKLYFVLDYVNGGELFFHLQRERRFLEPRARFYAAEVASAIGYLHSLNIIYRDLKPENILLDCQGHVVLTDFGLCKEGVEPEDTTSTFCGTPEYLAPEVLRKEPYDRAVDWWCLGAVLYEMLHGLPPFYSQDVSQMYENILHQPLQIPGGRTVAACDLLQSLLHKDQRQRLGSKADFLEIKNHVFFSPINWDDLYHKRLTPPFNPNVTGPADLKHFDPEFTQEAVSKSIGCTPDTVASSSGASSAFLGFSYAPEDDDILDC
Outline: as §1

p38a = target: T10, p38a (Homo sapiens, UniProt Q16539); details: compound 5 μM; ATP at Km; 30-minute pre-incubation
T10 construct: Nanosyn (contract laboratory that ran the panel)
T10 sequence (Q16539 whole entry): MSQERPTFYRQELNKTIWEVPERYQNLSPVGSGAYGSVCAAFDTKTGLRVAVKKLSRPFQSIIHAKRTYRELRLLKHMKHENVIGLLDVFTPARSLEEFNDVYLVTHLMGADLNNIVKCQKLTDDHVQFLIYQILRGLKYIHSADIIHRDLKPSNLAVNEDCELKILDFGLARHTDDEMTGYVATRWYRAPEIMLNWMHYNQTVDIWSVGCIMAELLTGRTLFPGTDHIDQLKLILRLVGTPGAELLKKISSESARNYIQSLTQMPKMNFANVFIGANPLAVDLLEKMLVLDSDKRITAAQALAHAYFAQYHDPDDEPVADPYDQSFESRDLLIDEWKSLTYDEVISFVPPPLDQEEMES
Outline: as §1

ARAF = target: T11, ARAF (Homo sapiens, UniProt P10398); details: compound 5 μM; ATP at Km; 30-minute pre-incubation
T11 construct: purchased Nanosyn (contract screening)
T11 sequence (P10398 1-606): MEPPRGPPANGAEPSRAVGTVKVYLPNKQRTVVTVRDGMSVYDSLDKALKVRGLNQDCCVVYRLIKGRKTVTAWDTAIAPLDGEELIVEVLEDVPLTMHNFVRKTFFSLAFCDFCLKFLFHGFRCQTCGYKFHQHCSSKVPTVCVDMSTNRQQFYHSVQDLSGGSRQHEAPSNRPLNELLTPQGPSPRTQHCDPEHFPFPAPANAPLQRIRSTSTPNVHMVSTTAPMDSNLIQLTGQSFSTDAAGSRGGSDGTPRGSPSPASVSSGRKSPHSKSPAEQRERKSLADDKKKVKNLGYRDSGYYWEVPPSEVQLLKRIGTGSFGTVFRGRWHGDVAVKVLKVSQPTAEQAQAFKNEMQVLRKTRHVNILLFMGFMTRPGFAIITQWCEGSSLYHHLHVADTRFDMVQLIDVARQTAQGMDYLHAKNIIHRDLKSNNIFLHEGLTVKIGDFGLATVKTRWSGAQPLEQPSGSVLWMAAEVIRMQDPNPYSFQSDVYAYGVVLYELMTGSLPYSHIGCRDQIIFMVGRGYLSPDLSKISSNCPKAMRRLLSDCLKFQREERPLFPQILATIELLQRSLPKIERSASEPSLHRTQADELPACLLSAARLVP
Outline: as §1

ERBB4 = target: T12, ERBB4 (Homo sapiens, UniProt Q15303); details: compound 5 μM; ATP at Km; 30-minute pre-incubation
T12 construct: purchased Nanosyn (contract screening)
Outline: as §1

YES = target: T13, YES (Homo sapiens, UniProt P07947); details: compound 5 μM; ATP at Km; 30-minute pre-incubation
T13 construct: Nanosyn (contract laboratory that ran the panel)
T13 sequence (P07947 whole entry): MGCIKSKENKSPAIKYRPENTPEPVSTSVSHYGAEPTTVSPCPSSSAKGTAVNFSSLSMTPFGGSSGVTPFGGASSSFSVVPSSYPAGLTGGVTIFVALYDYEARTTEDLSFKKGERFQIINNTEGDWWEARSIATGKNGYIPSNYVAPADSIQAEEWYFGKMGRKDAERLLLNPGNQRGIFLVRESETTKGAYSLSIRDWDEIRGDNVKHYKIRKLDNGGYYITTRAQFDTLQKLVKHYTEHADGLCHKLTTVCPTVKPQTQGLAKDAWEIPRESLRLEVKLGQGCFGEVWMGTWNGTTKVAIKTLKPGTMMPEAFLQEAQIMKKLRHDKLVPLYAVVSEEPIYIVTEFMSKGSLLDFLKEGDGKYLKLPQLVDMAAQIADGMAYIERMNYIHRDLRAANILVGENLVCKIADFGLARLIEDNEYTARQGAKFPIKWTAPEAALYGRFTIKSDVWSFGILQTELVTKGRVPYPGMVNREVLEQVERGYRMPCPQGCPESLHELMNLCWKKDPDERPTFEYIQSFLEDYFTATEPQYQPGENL
Outline: as §1

T1 sequence (Q9UKE5 whole entry): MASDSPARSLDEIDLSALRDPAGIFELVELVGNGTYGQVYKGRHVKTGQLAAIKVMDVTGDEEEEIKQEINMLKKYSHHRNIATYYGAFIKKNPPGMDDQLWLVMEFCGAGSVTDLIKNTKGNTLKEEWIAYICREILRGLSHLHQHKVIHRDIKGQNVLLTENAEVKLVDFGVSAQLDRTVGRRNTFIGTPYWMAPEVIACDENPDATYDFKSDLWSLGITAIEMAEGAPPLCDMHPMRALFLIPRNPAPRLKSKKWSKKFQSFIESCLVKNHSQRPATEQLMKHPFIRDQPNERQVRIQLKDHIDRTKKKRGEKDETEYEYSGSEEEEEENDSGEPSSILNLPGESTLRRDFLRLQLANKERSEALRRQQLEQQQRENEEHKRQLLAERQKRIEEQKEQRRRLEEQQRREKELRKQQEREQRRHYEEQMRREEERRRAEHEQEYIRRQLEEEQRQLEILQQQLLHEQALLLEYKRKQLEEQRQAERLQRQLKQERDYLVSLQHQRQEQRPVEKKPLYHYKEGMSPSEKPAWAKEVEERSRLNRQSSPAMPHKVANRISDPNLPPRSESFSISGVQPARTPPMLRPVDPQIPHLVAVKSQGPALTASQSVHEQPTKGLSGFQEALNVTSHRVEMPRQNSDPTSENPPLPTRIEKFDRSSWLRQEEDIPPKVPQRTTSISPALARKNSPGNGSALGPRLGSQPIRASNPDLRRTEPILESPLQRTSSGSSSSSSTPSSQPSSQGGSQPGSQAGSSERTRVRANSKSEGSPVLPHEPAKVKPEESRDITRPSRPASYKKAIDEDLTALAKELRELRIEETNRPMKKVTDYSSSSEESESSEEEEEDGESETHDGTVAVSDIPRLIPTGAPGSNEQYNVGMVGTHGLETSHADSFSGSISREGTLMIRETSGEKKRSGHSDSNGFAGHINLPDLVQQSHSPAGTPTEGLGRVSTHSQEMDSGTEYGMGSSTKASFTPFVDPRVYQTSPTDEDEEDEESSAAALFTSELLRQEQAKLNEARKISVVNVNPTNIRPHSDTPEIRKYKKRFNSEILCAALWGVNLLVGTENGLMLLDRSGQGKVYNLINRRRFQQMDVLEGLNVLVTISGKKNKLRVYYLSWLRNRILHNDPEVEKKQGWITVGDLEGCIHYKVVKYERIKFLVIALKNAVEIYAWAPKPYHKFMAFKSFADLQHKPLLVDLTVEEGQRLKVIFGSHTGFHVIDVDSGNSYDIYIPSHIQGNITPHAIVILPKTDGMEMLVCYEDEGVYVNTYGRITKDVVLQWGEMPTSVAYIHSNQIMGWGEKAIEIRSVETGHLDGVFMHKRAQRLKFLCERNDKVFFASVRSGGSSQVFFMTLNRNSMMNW

inhibition at 5 µM (TNIK) [%] | inhibition at 5 µM (PDGFRa) [%] | inhibition at 5 µM (BRAF) [%] | inhibition at 5 µM (CRAF) [%] | inhibition at 5 µM (CSK) [%] | inhibition at 5 µM (HGK) [%] | inhibition at 5 µM (DDR2) [%] | inhibition at 5 µM (MNK2) [%] | inhibition at 5 µM (SGK2) [%] | inhibition at 5 µM (p38a) [%] | inhibition at 5 µM (ARAF) [%] | inhibition at 5 µM (ERBB4) [%] | inhibition at 5 µM (YES) [%] | IC50 (DDR2) [nM] | Compound
< 79 | < 79 | ≥ 95 | ≥ 95 | < 79 | < 79 | ≥ 95 | < 79 | < 79 | 80 to 89 | ≥ 95 | < 79 | < 79 | – | Cc1ccc(NC(=O)c2cc(S(C)(=O)=O)n(-c3ccc(F)cc3)n2)cc1Nc1ccc2ncn(C)c(=O)c2c1 [Ex4, 1-(4-fluorophenyl)-N-(4-methyl-3-((3-methyl-4-oxo-3,4-dihydroquinazolin-6-yl)amino)phenyl)-5-(methylsulfonyl)-1H-pyrazole-3-carboxamide]
< 79 | < 79 | ≥ 95 | ≥ 95 | < 79 | < 79 | < 79 | < 79 | < 79 | ≥ 95 | ≥ 95 | < 79 | < 79 | – | Cc1ccc(NC(=O)c2cc([S+](C)[O-])n(-c3ccc(F)cc3)n2)cc1Nc1ccc2ncn(C)c(=O)c2c1 (stereo not drawn) [Ex5, 1-(4-fluorophenyl)-N-(4-methyl-3-((3-methyl-4-oxo-3,4-dihydroquinazolin-6-yl)amino)phenyl)-5-(methylsulfinyl)-1H-pyrazole-3-carboxamide]
< 79 | ≥ 95 | ≥ 95 | ≥ 95 | 80 to 89 | < 79 | < 79 | < 79 | 90 to 94 | 90 to 94 | < 79 | < 79 | 80 to 89 | – | Cc1ccc(NC(=O)c2cc([S+](C)[O-])n(-c3ccc(F)cc3)n2)cc1C#Cc1cnc2cccnn12 (stereo not drawn) [Ex6, 1-(4-fluorophenyl)-N-(3-(imidazo[1,2-b]pyridazin-3-ylethynyl)-4-methylphenyl)-5-(methylsulfinyl)-1H-pyrazole-3-carboxamide]
< 79 | < 79 | 90 to 94 | ≥ 95 | < 79 | < 79 | < 79 | < 79 | < 79 | < 79 | < 79 | < 79 | < 79 | – | CNC(=O)c1cc(Oc2ccc(F)c(NC(=O)c3cc([S+](C)[O-])n(-c4ccc(F)cc4)n3)c2)ccn1 (stereo not drawn) [Ex7, 4-(4-fluoro-3-(1-(4-fluorophenyl)-5-(methylsulfinyl)-1H-pyrazole-3-carboxamido)phenoxy)-N-methylpicolinamide]
90 to 94 | < 79 | 90 to 94 | ≥ 95 | < 79 | 80 to 89 | < 79 | 80 to 89 | < 79 | < 79 | < 79 | < 79 | < 79 | – | CSc1cc(C(=O)Nc2cc(Oc3ccnc(C(=O)NC4CNC4)c3)ccc2F)nn1-c1ccc(F)cc1 [Ex8, N-(azetidin-3-yl)-4-(4-fluoro-3-(1-(4-fluorophenyl)-5-(methylthio)-1H-pyrazole-3-carboxamido)phenoxy)picolinamide]
< 79 | < 79 | ≥ 95 | ≥ 95 | < 79 | < 79 | 90 to 94 | < 79 | < 79 | < 79 | ≥ 95 | < 79 | < 79 | – | Cc1ccc(NC(=O)c2cc(S(C)(=O)=O)n(-c3ccc(F)cc3)n2)cc1-c1cc(OCCO)nc(N2CCOCC2)c1 [Ex9, 1-(4-fluorophenyl)-N-(3-(2-(2-hydroxyethoxy)-6-morpholinopyridin-4-yl)-4-methylphenyl)-5-(methylsulfonyl)-1H-pyrazole-3-carboxamide]
< 79 | < 79 | ≥ 95 | ≥ 95 | < 79 | < 79 | 80 to 89 | < 79 | < 79 | < 79 | ≥ 95 | < 79 | < 79 | – | Cc1ccc(NC(=O)c2cc([S+](C)[O-])n(-c3ccc(F)cc3)n2)cc1-c1cc(OCCO)nc(N2CCOCC2)c1 (stereo not drawn) [Ex10, 1-(4-fluorophenyl)-N-(3-(2-(2-hydroxyethoxy)-6-morpholinopyridin-4-yl)-4-methylphenyl)-5-(methylsulfinyl)-1H-pyrazole-3-carboxamide]
– | – | – | – | – | – | – | – | – | – | – | – | – | < 500 | COc1cc2nccc(Oc3ccc(NC(=O)c4cc(S(C)(=O)=O)n(-c5ccc(F)cc5)n4)c(F)c3)c2cc1OC [Ex71, N-(4-((6,7-dimethoxyquinolin-4-yl)oxy)-2-fluorophenyl)-1-(4-fluorophenyl)-5-(methylsulfonyl)-1H-pyrazole-3-carboxamide]
– | – | – | – | – | – | – | – | – | – | – | – | – | < 500 | COc1cc2nccc(Oc3ccc(NC(=O)c4cc(S(C)(=O)=O)n(-c5ccc(F)cc5)n4)cc3F)c2cc1OC [Ex73, N-(4-((6,7-dimethoxyquinolin-4-yl)oxy)-3-fluorophenyl)-1-(4-fluorophenyl)-5-(methylsulfonyl)-1H-pyrazole-3-carboxamide]
